Data reported in patent US20220098196A1, “TRAPPING-FREE PARP INHIBITORS” (The Board of Regents of the University of Texas System, priority 2019, published 2022).

Assays:
PARP1 [1] = biological target: T1, PARP1 (Homo sapiens, UniProt P09874); assay: PARP1 trapping in HeLa cells (subcellular fractionation, chromatin-bound fraction); format: cell-based; design: host or cells: HeLa
Method: Subcellular Proteins Extraction. […] The cytosolic proteins were isolated by incubating the cells with the CEB buffer for 10 min at 4° C., and centrifuged at 500 g for 5 min. The membrane proteins were isolated by incubating the pellet from previous step with the MEB buffer for 10 min at 4° C., and centrifuged at 3000 g for 5 min. The soluble nuclear proteins were isolated by incubating the pellet from previous step with the NEB buffer for 30 min at 4° C., and centrifuged at 5000 g for 5 min. The chromatin bound proteins were isolated by incubating the pellet from previous step with the NEB buffer supplemented with nuclease for 15 min at RT and centrifuged at 16000 g for 5 min. Protein concentrations were determined by the BCA assay kit.

PARP1 [2] = biological target: T1, PARP1; assay: In Vitro PARP1 Activity Assay (PARP universal chemiluminescent assay kit); format: biochemical; settings: mean±SEM (n=3)
Method: In Vitro PARP1 Activity Assay. […] Briefly, the histone-coated strip wells were hydrated with the assay buffer for 30 min. The various compounds were added and were incubated with the PARP enzyme for 10 min. The reaction cocktail containing biotinylated NAD^+ was then added into the system, which was incubated for 1 hour to activate PARP1. After the reaction, the wells were washed twice with 0.1% Triton X-100/PBS and twice with PBS. The wells were incubated with Strep-HRP for another hour and were washed again as described above. PeroxyGlow reagents were mixed and added into the strip wells, and the biotin signal on coated histone was immediately measured with chemiluminescence on a Synergy microplate reader (Bio-Tek). The well without PARP1, and the well with PARP1 only was used as the negative (0%) and positive (100%) control, respectively.

[3] = biological target: T2, aldehyde dehydrogenase, mitochondria (ALDH2) (Homo sapiens, UniProt P05091); assay: TMT quantitative proteomics in HeLa cells, ALDH2; format: cell-based; settings: 5 μM, 24 hours
T2 construct: host or cells: HeLa
T2 sequence (P05091 18-517): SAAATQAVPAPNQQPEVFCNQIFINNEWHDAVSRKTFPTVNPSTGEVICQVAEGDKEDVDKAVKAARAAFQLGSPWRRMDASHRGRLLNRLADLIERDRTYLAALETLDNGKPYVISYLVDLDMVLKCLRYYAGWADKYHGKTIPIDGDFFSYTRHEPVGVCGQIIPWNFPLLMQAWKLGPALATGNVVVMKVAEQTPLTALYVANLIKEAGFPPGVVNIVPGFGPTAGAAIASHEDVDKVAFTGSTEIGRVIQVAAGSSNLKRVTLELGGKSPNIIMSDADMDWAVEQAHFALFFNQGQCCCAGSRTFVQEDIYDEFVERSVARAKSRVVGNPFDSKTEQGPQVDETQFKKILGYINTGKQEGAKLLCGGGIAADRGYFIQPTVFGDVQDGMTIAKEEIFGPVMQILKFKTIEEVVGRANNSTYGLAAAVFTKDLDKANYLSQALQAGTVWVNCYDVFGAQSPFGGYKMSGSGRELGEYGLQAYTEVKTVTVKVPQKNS
Excerpt: Quantitative Mass Spectrometry.
Proteins were then extracted using methanol-chloroform precipitation.
The maximum intensity of each reporter ion was extracted.

[4] = test system: primary rat cardiomyocytes; assay: ATP measurement in primary rat cardiomyocytes after MMS (CellTiter-Glo); format: cell-based; settings: 5 μM 24 hours pretreatment, MMS 0.01% 9 hours
Method: (§1) ATP and NAD^+ measurement. ATP levels were measured by a luminescence assay using the CellTiter-Glo luminescent kit (Promega). […] The cells were balanced for 30 min at RT. One hundred microliters of the CellTiter-Glo reagent was added into each well and incubated for 10 min. ATP levels were determined according the manufacturer's instruction. NAD^+ levels were assayed using an NAD/NADH quantification kit (Sigma). […] Approximately 2×10^5 cells were washed with 1 mL cold PBS and lysed in 400 μl of the extraction buffer. […] The samples were vortexed for 15 sec and centrifuged at 13,000 g for 10 min to remove the insoluble materials. NAD^+ was quantified according to the manufacturer's instruction (Sigma). Fifty microliters of the extracts were used in the NAD^+ assay, and the values were normalized by the amount of protein in each sample.

HeLa cells = assay: TMT global protein expression analysis in HeLa cells (whole proteome); format: cell-based, human
Method: Quantitative Mass Spectrometry. […] Two biological replicate samples were prepared for each treatment condition. Cells were washed with cold PBS and lysed using the SDS lysis buffer. Protein concentrations were determined by the BCA assay (Thermo Fisher Scientific). For each sample, 500 μg of protein was used for the subsequent TMT experiments^34.
For the TMT experiments, proteins were reduced with 2 mM DTT for 10 min and alkylated with 50 mM iodoacetamide for 30 min in dark. Proteins were then extracted using methanol-chloroform precipitation. […] Proteins were subsequently digested with trypsin (Thermo Fisher Scientific, at 1:100 enzyme/protein ratio) overnight at RT. Peptides were desalted with Oasis HLB cartridges (Waters) and resuspended in 200 mM HEPES (pH 8.5) to a final concentration of […]. For each sample, 100 μg of peptides were reacted with the corresponding amine-based TMT six-plex reagents (Thermo Fisher Scientific) for 1 hour. The reactions were quenched with 5% hydroxylamine solution and were combined.
Samples were desalted and fractioned by bRPLC (basic pH reversed phase HPLC) on a ZORBAX 300 Extend-C18 column (Narrow Bore RR 2.1 mm×100 mm, 3.5 μm particle size, 300 Å pore size). Buffer A is (10 mM Ammonium Formate in H2O, pH 10.0). Gradient was developed at a flow rate of 0.2 mL/min from 0% to 70% buffer B (1 mM Ammonium Formate, pH 10.0, 90% ACN). […] Samples were then analyzed on an Orbitrap Elite mass spectrometer (Thermo Fisher Scientific) using a top 15 HCD (higher-energy collisional dissociation) method.
The maximum intensity of each reporter ion was extracted. For each reporter ion channel, the observed signal-to-noise ratio was summed across all quantified proteins and was normalized.

PARP1 [5] = biological target: T1, PARP1; assay: Cycloheximide treatment, PARP1 stability in HeLa cells; format: cell-based; design: host or cells: HeLa; settings: iRucaparib 5 μM 12 hours pre-treatment, cycloheximide 10 μg/ml
Method: Cycloheximide treatment. HeLa cells (1.5×10^6) were plated in a 60 mm dish, which were allowed to adhere, and were cultured overnight. […] At the indicated time points, cells were washed with cold PBS, and were lysed with the SDS lysis buffer. PARP1 expression was determined by immunoblotting assays.

PARP1 [6] = biological target: T3, PARP1 (Rattus norvegicus, UniProt P27008); assay: PARP1 degradation in primary rat cardiomyocytes (immunoblotting); format: cell-based; settings: 24 hours
T3 construct: endogenous in cells; host or cells: primary neonatal rat cardiomyocytes
Method: Immunoblotting. Cells were washed once with cold PBS and lysed with the SDS lysis buffer (1% SDS, 10 mM HEPES pH 7.0, 2 mM MgCl2, 500 U universal nuclease). Protein concentrations were determined by the BCA assay kit (Thermo Fisher Scientific). A total of 20 μg proteins (40 μg proteins for PAR immunoblotting experiments) were loaded onto the SDS-PAGE gel and were then transferred to a nitrocellulose membrane. Nitrocellulose membranes were then blocked with the TBST buffer containing 5% milk (Bio-Rad). Membranes were incubated with the primary antibodies overnight at 4° C. and the secondary antibodies for 1 hour at room temperature (RT). The blots were developed using enhanced chemiluminescence and were exposed on autoradiograph films.

C2C12 myotubes = assay: NAD+ measurement in C2C12 myotubes after MMS; format: cell-based, mouse; settings: 5 μM 24 hours pretreatment, MMS 0.01% 4 hours (MMS alone 31%)
Method: as §1

T1 sequence (P09874 whole entry): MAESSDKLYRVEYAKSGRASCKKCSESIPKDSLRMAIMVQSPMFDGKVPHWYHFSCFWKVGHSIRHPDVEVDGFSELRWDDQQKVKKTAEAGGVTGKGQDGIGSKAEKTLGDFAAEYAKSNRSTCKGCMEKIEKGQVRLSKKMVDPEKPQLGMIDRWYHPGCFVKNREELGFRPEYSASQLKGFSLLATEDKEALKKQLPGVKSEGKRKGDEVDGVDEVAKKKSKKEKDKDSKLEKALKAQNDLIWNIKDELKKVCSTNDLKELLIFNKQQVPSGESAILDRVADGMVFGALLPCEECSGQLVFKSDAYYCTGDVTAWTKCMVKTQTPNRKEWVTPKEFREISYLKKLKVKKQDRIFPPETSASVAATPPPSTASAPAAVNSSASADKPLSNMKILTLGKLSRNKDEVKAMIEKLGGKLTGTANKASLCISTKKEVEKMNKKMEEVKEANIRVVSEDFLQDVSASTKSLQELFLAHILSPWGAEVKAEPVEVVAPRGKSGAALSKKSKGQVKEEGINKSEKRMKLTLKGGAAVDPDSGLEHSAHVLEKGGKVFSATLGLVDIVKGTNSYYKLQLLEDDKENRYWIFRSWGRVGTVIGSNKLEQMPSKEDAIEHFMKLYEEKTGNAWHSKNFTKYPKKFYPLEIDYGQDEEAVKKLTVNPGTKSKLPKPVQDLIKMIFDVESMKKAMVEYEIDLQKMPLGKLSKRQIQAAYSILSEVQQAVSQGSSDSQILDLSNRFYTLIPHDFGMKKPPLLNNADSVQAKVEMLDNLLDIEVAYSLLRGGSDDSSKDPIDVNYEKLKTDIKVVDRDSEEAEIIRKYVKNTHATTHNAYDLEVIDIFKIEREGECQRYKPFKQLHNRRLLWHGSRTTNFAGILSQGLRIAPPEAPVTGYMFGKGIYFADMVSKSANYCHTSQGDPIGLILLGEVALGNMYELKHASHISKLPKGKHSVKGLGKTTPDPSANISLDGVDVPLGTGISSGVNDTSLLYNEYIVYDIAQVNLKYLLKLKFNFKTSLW
T3 sequence (P27008 whole entry): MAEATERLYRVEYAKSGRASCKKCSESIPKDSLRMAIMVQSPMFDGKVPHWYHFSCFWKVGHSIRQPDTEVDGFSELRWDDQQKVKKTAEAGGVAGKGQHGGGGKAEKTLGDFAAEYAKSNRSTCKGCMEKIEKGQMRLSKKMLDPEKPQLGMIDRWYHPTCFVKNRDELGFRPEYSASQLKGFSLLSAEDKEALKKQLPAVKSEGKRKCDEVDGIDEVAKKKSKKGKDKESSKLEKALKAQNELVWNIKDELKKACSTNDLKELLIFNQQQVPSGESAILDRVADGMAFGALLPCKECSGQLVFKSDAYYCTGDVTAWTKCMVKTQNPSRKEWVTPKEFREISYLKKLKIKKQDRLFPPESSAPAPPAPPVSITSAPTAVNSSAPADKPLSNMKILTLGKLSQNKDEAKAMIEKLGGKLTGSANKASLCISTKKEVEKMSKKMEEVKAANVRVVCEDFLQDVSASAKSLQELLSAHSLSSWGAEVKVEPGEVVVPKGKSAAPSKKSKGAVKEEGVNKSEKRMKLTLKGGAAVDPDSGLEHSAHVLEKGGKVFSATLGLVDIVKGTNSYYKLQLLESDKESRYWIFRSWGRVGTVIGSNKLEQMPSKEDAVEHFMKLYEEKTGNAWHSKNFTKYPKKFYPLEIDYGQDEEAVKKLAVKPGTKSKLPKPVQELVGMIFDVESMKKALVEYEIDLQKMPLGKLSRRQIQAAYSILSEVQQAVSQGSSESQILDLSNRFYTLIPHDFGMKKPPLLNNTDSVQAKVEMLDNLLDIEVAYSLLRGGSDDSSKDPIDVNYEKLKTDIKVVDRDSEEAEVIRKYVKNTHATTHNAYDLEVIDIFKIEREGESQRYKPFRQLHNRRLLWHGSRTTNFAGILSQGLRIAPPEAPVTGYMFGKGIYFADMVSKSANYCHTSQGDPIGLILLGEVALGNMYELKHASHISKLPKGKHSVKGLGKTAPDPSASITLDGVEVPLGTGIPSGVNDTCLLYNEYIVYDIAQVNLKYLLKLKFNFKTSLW

Structure (SMILES): CN(CCCCc1cn(CCOCCOCCOCCNc2cccc3c2C(=O)N(C2CCC(=O)NC2=O)C3=O)nn1)Cc1ccc(-c2[nH]c3cc(F)cc4c3c2CCNC4=O)cc1 (centres unmarked) [iRucaparib, Rucaparib-Triazole-PEG3-Pomalidomide]
- PARP1 trapping on chromatin (chromatin-bound fraction) (PARP1 [1]; 5 μM 24 hours, then MMS 0.01% 2 hours): undetectable in the chromatin-bound fraction
- potency in PARP1 trapping (rank order) (PARP1 [1]; 5 μM for all compounds, MMS 0.01%): even lower amount of trapped PARP1 compared to the least potent PARP1-trapper, Veliparib
- IC50 (PARP1 [2]): 18.3 nM
- ALDH2 Log 2(iRucaparib/DMSO) ratio [3]: 0.05
- rescue of MMS-lowered ATP abundances [4]: could be rescued
- proteins with 2-fold decrease (potential pomalidomide-induced degradation targets) (HeLa cells; DMSO vs. iRucaparib (5 μM) plus Rucaparib (1 μM), 24 hours): UBBP4 and ZFP91
- number of proteins with abundance decreased by more than 2-fold (HeLa cells; iRucaparib 5 μM 24 hours vs DMSO, 7,437 quantified proteins): five
- downregulation of other PARPs (PARP16, PARP14, PARP4, PARP12, PARP9, TNKS1) (HeLa cells; iRucaparib 5 μM, 24 hours): none of the other PARPs exhibited significant downregulation
- start of noticeable PARP1 degradation under CHX treatment (PARP1 [5]): 8 h
- PARP1 degradation (PARP1 [6]): robust iRucaparib-induced PARP1 degradation
- NAD+ levels, % of that in control cells (C2C12 myotubes): 74%
